Results taken from patent US20250002463A1, “NEW SALT FORMS OF AMILORIDE AND ITS DERIVATIVES FOR PHARMACEUTICAL USE” (PSOMRI Holding AB, priority 2021, published 2025).
Where “and” joins values, the source holds several entries; their conditions need not be identical. Equal entries are not always repeated.

Key:
[1] = Polymorphism: solid forms found in salt screen by HT-XRPD; assay type: physicochemical; settings: DME, THF; for Polymorphism: Example 1 salt screen in MeOH; for salt polymorphs found from all three crystallization solvents: Example 2, MeOH
Method: (§1) The precipitated solids were analyzed by high throughput X-ray powder diffractometry (HT XRPD). Liquid phases (both solutions and mother liquors) were evaporated at ambient conditions and the residual solids were analyzed by HT XRPD.
The salt screen experiments were carried out in methanol (MeOH), 1,2-dimethoxyethane (DME) and tetrahydrofuran (THF).

[2] = Physical stability under Accelerated Aging Conditions (AAC, 40° C./75% RH, 2 days), HT-XRPD; settings: for Physically stable after AAC: Example 1; for Physical Stability: AAC 40° C./75% RH, 2 days, re-analyzed by HT-XRPD
[3] = Hygroscopicity by Dynamic Vapor Sorption (DVS); assay type: physicochemical; settings: for classification of hygroscopic behaviour: based on water vapour uptake at 25° C./80% RH
Method: The hygroscopic behaviour of the salts was evaluated through Dynamic Vapor Sorption (DVS) measurements with an RH profile 40-95-0-40% at 25° C. and a dm/dt of 0.002. The classification of the hygroscopic behaviour is based on the water vapour uptake at 25° C./80% RH in first adsorption cycle of sorption isotherm.

[4] = Crystallinity of salt forms by HT-XRPD; assay type: physicochemical; settings: salt screen solid forms
Method: as §1
XRPD patterns were obtained using the Ardena T2 high-throughput XRPD set-up. The plates were mounted on a Bruker General Area Detector Diffraction System (GADDS) equipped with a VÅNTEC-500 gas area detector corrected for intensity and geometric variations. The calibration of the measurement accuracy (peaks position) was performed using NIST SRM1976 standard (Corundum).
No background subtraction or curve smoothing was applied to the XRPD patterns.

[5] = Intrinsic dissolution rate (rotating disc, μDiss) in water and FaSSIF; assay type: physicochemical; settings: for IDR (mg/cm^2/min) Individual: single disc
Method: Rotating disc intrinsic dissolution determinations were performed with a μDiss apparatus (Pion, USA) equipped with 6 independent glass fiber probes each connected to a diode area. Before the start of the experiment the probes were calibrated using the spectrum of a Mercury 362 nm pen-ray lamp. Discs were prepared in a passivated aluminum dye with a mini-IDR press (Heath Scientific, UK).
Six dilutions of benzamil lactate salt were prepared in the dissolution media in the range from 0 to 0.5 mg/mL, and the solutions were stirred with a cross-shaped magnetic stirrer. These dilutions were used for the calibration curve which is used for the calculation of the amount of benzamil in solution. Moreover, the solutions were used to select the wavelength at which the samples were to be measured and to select the proper path length.
The dyes were placed in their Teflon holder magnet stirrer and placed into 20 mL glass vials. Before to the sample measurement, a blank of each media was taken in the respective channel. The experiment started by the gentle addition of the pre-warmed dissolution media. Vials were incubated at 37° C. under continuous stirring at 100 rpm for a maximum of 4 h. UV absorption was measured with the in-line probes at regular intervals. Upon completion of the experiment the pH of the solution was determined. Concentrations of API in solution were calculated with use of the calibration curve and plotted against time. Dissolution rates were calculated over the linear parts of the curves. All dissolution rate experiments were done in triplicate except for TFA1 which were done in duplicate due to the lack of material.

[6] = Physio-chemical stability study, open container 25° C./60% RH and 40° C./75% RH (UPLC, TGMS, HT-XRPD); assay type: physicochemical; settings: for UPLC 1 week / UPLC 3 weeks / UPLC 3 days: chemical purity
Method: Open container at 25° C. and 60% RH • 2. Open container at 40° C. and 75% RH

[7] = Kinetic and thermodynamic solubility in water at 37° C. (1 h and 18 h, UPLC)
[8] = Example 2, 40° C./75% RH for 2 days
[9] = open container 25° C. and 60% RH
[10] = open container 40° C. and 75% RH
[11] = water, 37° C., 30 mg/ml suspension

Compound: CC(=O)O.NC(=NC(=O)c1nc(Cl)c(N)nc1N)NCc1ccccc1 [ACA2]
- Polymorphism [1]: Yes
- Physically stable after AAC ([2]; 40° C./75% RH for 2 days): physically stable and Yes

Compound: N=C(NCc1ccccc1)NC(=O)c1nc(Cl)c(N)nc1N.O=C(O)c1ccccc1 [BNZ1]
- Polymorphism [1]: Yes
- water vapour uptake ([3]; 25° C./80% RH, first adsorption cycle): 0.1%
- classification of hygroscopic behaviour [3]: non hygroscopic
- Physically stable after AAC ([2]; 40° C./75% RH for 2 days): physically stable and Yes

Compound: N=C(NCc1ccccc1)NC(=O)c1nc(Cl)c(N)nc1N.O=C(O)c1ccccc1 [BNZ2]
- Polymorphism [1]: Yes
- classification of hygroscopic behaviour [3]: slightly hygroscopic
- Physically stable after AAC ([2]; 40° C./75% RH for 2 days): physically stable and Yes

Compound: NC(=NC(=O)c1nc(Cl)c(N)nc1N)NCc1ccccc1.O=C(O)c1ccccc1 [BNZ3]
- Polymorphism [1]: Yes
- Physically stable after AAC ([2]; 40° C./75% RH for 2 days): physically stable and Yes

Compound: Cl.N/C(=N\C(=O)c1nc(Cl)c(N)nc1N)NCc1ccccc1 [Benzamil HCl SM1, reference compound]
- Polymorphism [1]: Yes
- Physically stable after AAC ([2]; 40° C./75% RH for 2 days): No

Compound: NC(=NC(=O)c1nc(Cl)c(N)nc1N)NCc1ccccc1.O=S(=O)(O)c1cccc2c(S(=O)(=O)O)cccc12 [NDS1]
- salt polymorphs found from all three crystallization solvents [1]: only one salt polymorph
- Crystallinity [4]: Good
- Physical Stability [2]: Stable
- physical stability upon exposure to AAC [2, 8]: physically stable

Compound: NC(=NC(=O)c1nc(Cl)c(N)nc1N)NCc1ccccc1.O=C(O)c1cccnc1 [NIC1]
- salt polymorphs found from all three crystallization solvents [1]: only one salt polymorph
- Crystallinity [4]: Good
- Physical Stability [2]: Stable
- physical stability upon exposure to AAC [2, 8]: physically stable

Compound: NC(=NC(=O)c1nc(Cl)c(N)nc1N)NCc1ccccc1.O=[N+]([O-])O [NIT5]
- Polymorphism [1]: Yes
- classification of hygroscopic behaviour [3]: slightly hygroscopic

Compound: NC(=NC(=O)c1nc(Cl)c(N)nc1N)NCc1ccccc1.O=C(O)c1cc2ccccc2c(Cc2c(O)c(C(=O)O)cc3ccccc23)c1O [PAM1]
- Crystallinity [4]: Obtained as mixture
- Physical Stability [2]: Stable
- physical stability upon exposure to AAC [2, 8]: physically stable

Compound: NC(=NC(=O)c1nc(Cl)c(N)nc1N)NCc1ccccc1.O=C(O)c1cc2ccccc2c(Cc2c(O)c(C(=O)O)cc3ccccc23)c1O [PAM2]
- Crystallinity [4]: Poor
- Physical Stability [2]: Stable
- physical stability upon exposure to AAC [2, 8]: physically stable

Compound: NC(=NC(=O)c1nc(Cl)c(N)nc1N)NCc1ccccc1.O=P(O)(O)O [PHO2]
- Polymorphism [1]: Yes
- classification of hygroscopic behaviour [3]: slightly hygroscopic
- Physically stable after AAC ([2]; 40° C./75% RH for 2 days): physically stable and Yes

Compound: CC(C)(C)C(=O)O.NC(=NC(=O)c1nc(Cl)c(N)nc1N)NCc1ccccc1 [PIV1]
- salt polymorphs found from all three crystallization solvents [1]: only one salt polymorph
- Crystallinity [4]: Good
- Physical Stability [2]: Stable
- physical stability upon exposure to AAC [2, 8]: physically stable

Compound: CCC(=O)O.NC(=NC(=O)c1nc(Cl)c(N)nc1N)NCc1ccccc1 [PRO1]
- Crystallinity [4]: Good
- Physical Stability [2]: Unstable

Compound: CCC(=O)O.NC(=NC(=O)c1nc(Cl)c(N)nc1N)NCc1ccccc1 [PRO3]
- Crystallinity [4]: Moderate
- Physical Stability [2]: Unstable

Compound: CCC(=O)O.NC(=NC(=O)c1nc(Cl)c(N)nc1N)NCc1ccccc1 [PRO4]
- Crystallinity [4]: Obtained as mixture
- Physical Stability [2]: Unstable

Compound: NC(=NC(=O)c1nc(Cl)c(N)nc1N)NCc1ccccc1.O=C(O)c1ccccc1O [SAL1]
- Crystallinity [4]: Good
- Physical Stability [2]: Stable
- physical stability upon exposure to AAC [2, 8]: physically stable

Compound: NC(=NC(=O)c1nc(Cl)c(N)nc1N)NCc1ccccc1.O=C(O)c1ccccc1O [SAL3]
- Crystallinity [4]: Moderate
- Physical Stability [2]: Unstable-

Compound: CCCCCCCCCCCCCCCCCC(=O)O.NC(=NC(=O)c1nc(Cl)c(N)nc1N)NCc1ccccc1 [STE1]
- Crystallinity [4]: Obtained as mixture
- Physical Stability [2]: Stable
- physical stability upon exposure to AAC [2, 8]: physically stable

Compound: CCCCCCCCCCCCCCCCCC(=O)O.NC(=NC(=O)c1nc(Cl)c(N)nc1N)NCc1ccccc1 [STE2]
- Crystallinity [4]: Poor
- Physical Stability [2]: Stable
- physical stability upon exposure to AAC [2, 8]: physically stable

Compound: NC(=NC(=O)c1nc(Cl)c(N)nc1N)NCc1ccccc1.NC(=NC(=O)c1nc(Cl)c(N)nc1N)NCc1ccccc1.O=S(=O)(O)O [SUL1]
- Polymorphism [1]: Yes
- Physically stable after AAC ([2]; 40° C./75% RH for 2 days): physically stable and Yes

Compound: N=C(NCc1ccccc1)NC(=O)c1nc(Cl)c(N)nc1N.O=C(O)C(O)C(O)C(=O)O [TAR1]
- Polymorphism [1]: Unclear
- Physically stable after AAC ([2]; 40° C./75% RH for 2 days): physically stable
- Physically stable after AAC ([2]; 40° C./75% RH for 2 days, listed as TAR1 pc): Yes

Compound: NC(=NCc1ccccc1)NC(=O)c1nc(Cl)c(N)nc1N.O=C(O)C(F)(F)F [TFA2]
- IDR (mg/cm^2/min) Average ([5]; FaSSIF, 37° C., 100 rpm): 0.14 ± 0.004 mg/cm^2/min
- IDR (mg/cm^2/min) Individual ([5]; FaSSIF, 37° C., 100 rpm): 0.145 mg/cm^2/min and 0.143 mg/cm^2/min and 0.138 mg/cm^2/min
- IDR (mg/cm^2/min) Average ([5]; Water, 37° C., 100 rpm): 0.13 ± 0.1 mg/cm^2/min
- IDR (mg/cm^2/min) Individual ([5]; Water, 37° C., 100 rpm): 0.116 mg/cm^2/min and 0.143 mg/cm^2/min and 0.130 mg/cm^2/min
- state of tablet ([5]; after about 4 h, 37° C.): still not completely dissolved
- IDR difference to LAC1 ([5]; in FaSSIF): about 4 fold
- Intrinsic Dissolution Rate (IDR) ([5]; water, 37° C., 100 rpm, linear part (LAC1 1 to 36 min; TFA 10-100 min)): 0.13±0.01 mg/cm^2/min
- UPLC t0 ([6]; chemical purity at start of stability study): 99.1% and 100%
- UPLC 1 week [6, 9]: 99.9% and 100%
- UPLC 3 weeks [6, 9]: 100%
- UPLC 3 days [6, 9]: 99.9% and 100%
- UPLC 1 week [6, 10]: 100%
- UPLC 3 weeks [6, 10]: 100%
- UPLC 3 days [6, 10]: 99.9% and 100%
- physical and chemical stability ([6]; incubation for 3 weeks at 25° C./60% RH and 40° C./75% RH): physically and chemically stable
- TGMS 1 week [6, 9]: 0.1% water and <0.1 % water
- XRPD 1 week [6, 9]: TFA2 and TFA1
- TGMS 3 weeks [6, 9]: <0.1% water
- XRPD 3 weeks [6, 9]: TFA2
- XRPD 3 days [6, 9]: TFA2 and TFA1
- TGMS 1 week [6, 10]: 0.1% water and <0.1 % water
- XRPD 1 week [6, 10]: TFA2 and TFA1
- TGMS 3 weeks [6, 10]: <0.1% water
- XRPD 3 weeks [6, 10]: TFA2
- XRPD 3 days [6, 10]: TFA2 and TFA1
- XRPD t0 ([6]; start of stability study): TFA2 and TFA1
- XRPD 1 h Amb. ([7]; residual solid after 1 h in water at 37° C., ambient-dried): TFA2
- XRPD 1 h Vac. ([7]; residual solid after 1 h in water at 37° C., vacuum-dried): TFA2
- XRPD 18 h Amb. ([7]; residual solid after 18 h in water at 37° C., ambient-dried): TFA2
- XRPD 18 h Vac. ([7]; residual solid after 18 h in water at 37° C., vacuum-dried): TFA2
- pH after 10 min [7, 11]: 6.0
- pH after 1 h [7, 11]: 6.2
- Solubility (mg/mL) 1 h ([7]; water, 37° C., 1 h (kinetic), UPLC): 2.6 mg/mL
- Solubility (mg/mL) 18 h ([7]; water, 37° C., 18 h (thermodynamic), UPLC): 1.6 mg/mL
- Physically stable? ([2]; AAC, 2 days at 40° C. and 75% RH, solids from thermocycling): Yes
- physical stability upon exposure to AAC ([2]; Example 3 thermocycling solids, 2 days at 40° C. and 75% RH): physically stable

Compound: Cc1ccc(S(=O)(=O)O)cc1.NC(=NC(=O)c1nc(Cl)c(N)nc1N)NCc1ccccc1 [TOS1]
- Polymorphism [1]: Unclear
- classification of hygroscopic behaviour [3]: slightly hygroscopic
- Physically stable after AAC ([2]; 40° C./75% RH for 2 days): physically stable and Yes

Compound: CCCCC(=O)O.NC(=NC(=O)c1nc(Cl)c(N)nc1N)NCc1ccccc1 [VAL1]
- Crystallinity [4]: Good
- Physical Stability [2]: Stable
- physical stability upon exposure to AAC [2, 8]: physically stable

Compound: PAM3
- Crystallinity [4]: Poor
- Physical Stability [2]: Unstable
